Columns and labels:
Type in all cases: in vivo
[1] = test system: green peach aphid (Myzus persicae); test: Myzus persicae test, spray treatment to runoff on infested bell pepper plants; conditions: for Kill in % after 1^d: Table E2
From the text: (§1) The expected activity for a given combination of two active ingredients can be calculated (cf. Colby, S. R.; “Calculating Synergistic and Antagonistic Responses of Herbicide Combinations”, Weeds 15, pages 20-22, 1967):
(§2) If • x=the kill rate, expressed in % of the untreated control, when employing active ingredient A at an application rate of m ppm, • Y=the kill rate, expressed in % of the untreated control, when employing active ingredient B at an application rate of n ppm, and • E=the kill rate, expressed in % of the untreated control, when employing active ingredients A and B at application rates of m and n ppm, then
(§3) If the actual insecticidal kill rate is higher than the calculated one, the kill of the combination is superadditive, i.e. a synergistic effect is present. In this case, the kill rate that is actually observed has to be higher than the value, calculated using the formula above, for the expected kill rate (E).
(§4) An appropriate solution is prepared by mixing 1 part by weight of formulation with the stated amount of water and adjuvant, and diluting the concentrate with water to the desired concentration.
Bell pepper plants (Capsicum sativum) heavily infested by the green peach aphid (Myzus persicae) are sprayed to runoff with the desired concentration of the application solution.
(§5) After the desired time the kill in % is determined in each case. In this context, 100% means that all of the larvae have been killed; 0% means that no larvae have been killed. The kill figures determined are calculated in accordance with the Colby formula described above.

[2] = test system: cotton aphid (Aphis gossypii); test: Aphis gossypii test, spray treatment to runoff on infested cotton plants
From the text: as §1, §2, §3, §4
Cotton plants (Gossypium herbaceum) heavily infested by the cotton aphid (Aphis gossypii) are sprayed to runoff with the desired concentration of the application solution.
as §5

[3] = test system: caterpillars of the army worm (Spodoptera frugiperda); test: Spodoptera frugiperda test, spray treatment to runoff on corn plants
From the text: as §1, §2, §3, §4
b) Spodoptera frugiperda Test
Corn plants (Zea mais) are sprayed to runoff with the desired use concentration and are populated with caterpillars of the army worm (Spodoptera frugiperda) while the leaves are still wet.
as §5

[4] = test system: larvae of the cabbage moth (Plutella xylostella); test: Plutella xylostella test, spray treatment to runoff on cabbage plants; conditions: Table B
From the text: as §1, §2, §3, §4
c) Plutella xylostella Test
Cabbage plants (Brassica pekinesis) are sprayed to runoff with the desired use concentration and are populated with larvae of the cabbage moth (Plutella xylostella) while the leaves are still wet.
as §5

[5] = test system: caterpillars of the cotton boll worm (Heliothis armigera); test: Heliothis armigera test, spray treatment to runoff on cotton plants; conditions: Table A, 4 ppm
From the text: as §1, §2, §3, §4
a) Heliothis armigera Test […]
After the desired time the kill in % is determined in each case. […] The kill figures determined are calculated in accordance with the Colby formula described above.

## CC1(C)[C@H](C(=O)O[C@H](C#N)c2cccc(Oc3ccccc3)c2)[C@@H]1C=C(Br)Br [Deltamethrin]
[1]; 0.8 ppm
  Kill in % after 1^d: 20%
[2]; Table D2, 0.8 ppm
  Kill in % after 3^d: 15%

## C=CCN(CC=C)C(=O)C(Cl)Cl [Dichlormid a.i., 2,2-dichloro-N,N-di-2-propenylacetamide]
[3]; Table C2, 50 ppm
  Kill in % after 3^d: 0%
[2]; Table D1, 100 ppm
  Kill in % after 3^d: 0%

## Clc1cc(Cl)nc(-c2ccccc2)n1 [Fenclorim, 4,6-dichloro-2-phenylpyrimidine]
[4]; 100 ppm
  Kill in % after 7^d: 0%
[3]; Table C2, 100 ppm
  Kill in % after 3^d: 0%
[2]; Table D1, 100 ppm
  Kill in % after 3^d: 0%
[2]; Table D2, 100 ppm
  Kill in % after 3^d: 0%

## CC1(C)OC(c2ccco2)CN1C(=O)C(Cl)Cl (stereo not shown) [Furilazole a.i., 3-dichloroacetyl-5-(2-furanyl)-2,2-dimethyloxazolidine]
[1]; 100 ppm
  Kill in % after 1^d: 0%
[3]; Table C2, 100 ppm
  Kill in % after 3^d: 0%
[2]; Table D1, 100 ppm
  Kill in % after 3^d: 0%
[2]; Table D2, 100 ppm
  Kill in % after 3^d: 0%

## CNC(=O)Oc1cc(C)c(SC)c(C)c1 [Methiocarb]
[4]; 20 ppm
  Kill in % after 7^d: 0%
[3]; Table C2, 20 ppm
  Kill in % after 3^d: 17%

## CC1(C)C(C=C(Cl)Cl)C1C(=O)OC(C#N)c1ccc(F)c(Oc2ccccc2)c1 (stereo not drawn) [β-Cyfluthrin, Beta-Cyfluthrin]
[1]; Table E1, 0.8 ppm, after 3 d
  Kill in % after 3^d: 10%
[2]; Table D1, 0.8 ppm
  Kill in % after 3^d: 35%

## Chlorpyrifos
[4]; 4 ppm
  Kill in % after 7^d: 0%
[3]; Table C1, 4 ppm
  Kill in % after 3^d: 50%
[5]
  Kill in % after 3^d: 0%
